Tested on: human tumor cells including breast, colon, prostate, cervix, lung, and ovarian cancers
Experiment: In vitro activity of BA against cancer cells
Type: cell-based

NC(=O)c1ccc(I)c([N+](=O)[O-])c1 [BA, 4-iodo-3-nitrobenzamide]
proliferation of human tumor cells (in vitro, breast, colon, prostate, cervix, lung, and ovarian cancers): inhibits the proliferation | activity against cancer cells in vitro (including drug resistant cell lines): active against a broad range of cancer cells

— patent US20090123419A1, “TREATMENT OF UTERINE CANCER AND OVARIAN CANCER WITH A PARP INHIBITOR ALONE OR IN COMBINATION WITH ANTI-TUMOR AGENTS” (BiPar Sciences, priority 2007, published 2009)
